Results as given in US5854280A, “Antifungal sordaridin derivatives” (Glaxo Wellcome S.A., priority 1994, dated 1998).
≈ marks a conversion by molar mass, not a printed value.

Experiments:
Assay in all cases: in vitro antifungal MIC, two-fold serial dilution
[1] = tested on: C. psuedotropicalis 2371E; assay type: cell-based, Candida pseudotropicalis
Method: (§1) The in vitro evaluation of the anti-fungal activity of compounds of the invention was performed on liquid or solid medium by the anti-fungal two-fold serial dilution technique of determining the minimum inhibitory concentration (MIC) of anti-fungal agent that inhibited development of growth after 24 to 48 hours of incubation at 37° C. In practice, a series of agar plates or broth microdilution panels containing two-fold dilutions of anti-fungal agent tested were inoculated with a standard culture of a clinically relevant pathogen, for example, Candida albicans. The agar plates or broth microdulution panels were then examined for the presence or absence of growth of the fungus and the appropriate MIC values were noted.
(§2) Compounds of formula (I) have been tested for anti fungal activity in a standard in vitro screen and the minimum inhibiting concentration (MIC; μg/ml) determined for each compound against a variety of clinically relevant pathogens.

C. neoformans 2867E = assay type: cell-based, Cryptococcus neoformans
Method: as §1, §2

C. tropicalis 2808E = assay type: cell-based, Candida tropicalis
Method: as §1, §2

C. glabrata 2376E = assay type: cell-based, Candida glabrata
Method: as §1, §2

C. glabrata 2375E = assay type: cell-based, Candida glabrata
Method: as §1, §2

C. albicans 1208E = assay type: cell-based, Candida albicans
Method: as §1, §2

C. aibicans 2402E = assay type: cell-based, Candida albicans
Method: as §1, §2

C. albicans 2005E = assay type: cell-based, Candida albicans
Method: as §1, §2

C. albicans 4711 = assay type: cell-based, Candida albicans
Method: as §1, §2

Row | Structure (SMILES) | MIC (minimum inhibiting concentration) [1] | MIC (minimum inhibiting concentration) (C. neoformans 2867E) | MIC (minimum inhibiting concentration) (C. tropicalis 2808E) | MIC (minimum inhibiting concentration) (C. glabrata 2376E) | MIC (minimum inhibiting concentration) (C. glabrata 2375E) | MIC (minimum inhibiting concentration) (C. albicans 1208E) | MIC (minimum inhibiting concentration) (C. aibicans 2402E) | MIC (minimum inhibiting concentration) (C. albicans 2005E) | MIC (minimum inhibiting concentration) (C. albicans 4711)
1 | CC(C)C1=CC2CC3(C=O)C4CCC(C)C4CC2(COC2CC4OC(C)(C)OC4C(C)O2)C13C(=O)O [Example 6, [1R-(1α,3aβ,4β,4aβ,7β,7aα,8aβ)]8a-[(2,6-Dideoxy-3,4-O-isopropylidene-β-D-allopyranosyloxy)methyl]-4-formyl-4,4a,5,6,7,7a,8,8a-octahydro-7-methyl-3-(1-methylethyl)-4-methano-s-indacene-3a(1H)-carboxylic acid] | 0.004 µg/mL (≈ 0.00796 µM) | 8.00 µg/mL (≈ 15.9 µM) | 0.120 µg/mL (≈ 0.239 µM) | 31.00 µg/mL (≈ 61.7 µM) | 31.00 µg/mL (≈ 61.7 µM) | 0.008 µg/mL (≈ 0.0159 µM) | 0.008 µg/mL (≈ 0.0159 µM) | 0.001 µg/mL (≈ 0.00199 µM) | 0.004 µg/mL (≈ 0.00796 µM)
2 | CCCOC1C(C)OC(OCC23CC4C(C)CCC4C4(C=O)CC2C=C(C(C)C)C43C(=O)O)C2OC12 [Example 52, [1R-(1α,3aβ,4β,4aβ,7β,7aα,8aβ)]8a-[(2,3-Anhydro-6-deoxy-4-O-propyl-β-D-mannopyranosyloxy)methyl]-4-formyl-4,4a,5,6,7,7a,8,8a-octahydro-7-methyl-3-(1-methylethyl)-1,4-methano-s-indacene-3a(1H)-carboxylic acid] | 0.001 µg/mL (≈ 0.00199 µM) | 1.00 µg/mL (≈ 1.99 µM) | 0.030 µg/mL (≈ 0.0597 µM) | 8.00 µg/mL (≈ 15.9 µM) | 8.00 µg/mL (≈ 15.9 µM) | 0.004 µg/mL (≈ 0.00796 µM) | 0.008 µg/mL (≈ 0.0159 µM) | 0.001 µg/mL (≈ 0.00199 µM) | 0.004 µg/mL (≈ 0.00796 µM)
3 | CC(C)C1=CC2CC3(C=O)C4CCC(C)C4CC2(COC2CC4C(=O)COC4C(C)O2)C13C(=O)O [Example 37, [1R-(1α,3aβ,4β,4aβ,7β,7aα,8aβ)]8a-[[1S,7R,9R]-2,8-Dioxa-9-methyl-4-oxo-cis-bicyclo[3.4.0]-non-7-yl-oxy-methyl]-4-formyl4,4a,5,6,7,7a,8,8a-octahydro-7-methyl-3-(1-methyl-ethyl)-1,4-methano-s-indacene-3a(1H)-carboxylic acid] | 0.060 µg/mL (≈ 0.123 µM) | ≤ 0.250 µg/mL | 0.500 µg/mL (≈ 1.03 µM) | 6.00 µg/mL (≈ 12.3 µM) | 4.00 µg/mL (≈ 8.22 µM) | 0.060 µg/mL (≈ 0.123 µM) | 0.060 µg/mL (≈ 0.123 µM) | 0.001 µg/mL (≈ 0.00206 µM) | 0.030 µg/mL (≈ 0.0617 µM)
4 | CC(C)C1=CC2CC3(C=O)C4CCC(C)C4CC2(COC2CC4=CCOC4C(C)O2)C13C(=O)O [Example 43, [1R-(1α,3aβ,4β,4aβ,7β,7aα,8aβ)]8a-[(1S,7R,9R)-2,8-Dioxa-9-methyl-bicyclo[3,4,0]-non-4-ene-7-yl-oxymethyl]-4-formyl-4,4a,5,6,7,7a,8,8a-octahydro-7-methyl-3-(1-methylethyl)-1,4-methano-s-indacene-3a(1H)-carboxylic acid] | < 0.001 µg/mL | 2.00 µg/mL (≈ 4.25 µM) | 0.500 µg/mL (≈ 1.06 µM) | 4.00 µg/mL (≈ 8.5 µM) | 4.00 µg/mL (≈ 8.5 µM) | 0.001 µg/mL (≈ 0.00212 µM) | 0.001 µg/mL (≈ 0.00212 µM) | 0.001 µg/mL (≈ 0.00212 µM) | 0.001 µg/mL (≈ 0.00212 µM)
5 | CC(C)C1=CC2CC3(C=O)C4CCC(C)C4CC2(COC2CC4C(C)COC4C(C)O2)C13C(=O)[O-].[Na+] [Example 20, [1R-(1α,3aβ,4β,4aβ,7β,7aα,8aβ)]8a-[[1S,4R,7R,9R]-2,8-Dioxa-4,9-dimethyl-cis-bicyclo[3.4.0]-7-yl-oxy-methyl]-4-formyl-4,4a,5,6,7,7a,8,8a-octahydro-7-methyl-3-(1-methylethyl)-1,4-methano-s-indacene-3a(1H)-carboxylic acid, sodium salt] | 0.004 µg/mL | 0.250 µg/mL | 0.008 µg/mL | 0.500 µg/mL | 0.500 µg/mL | ≤ 0.001 µg/mL | ≤ 0.001 µg/mL | ≤ 0.001 µg/mL | ≤ 0.001 µg/mL
6 | CC(C)C1=CC2CC3(C=O)C4CCC(C)C4CC2(COC2OC(C)C4OC(C)(C)OC4C2O)C13C(=O)O [Example 1, [1R-(1α,3aβ,4β,4aβ,7β,7aα,8aβ)]8a-[(6-Deoxy-3,4-O-isopropylidene-β-D-altropyranosyloxy)methyl]-4-formyl-4,4a,5,6,7,7a,8,8a-octahydro-7-methyl-3-(1-methylethyl)-1,4-methano-s-indacene-3a(1H)-carboxylic acid] | 0.060 µg/mL (≈ 0.116 µM) | > 125 µg/mL | 1.000 µg/mL (≈ 1.93 µM) | 31.00 µg/mL (≈ 59.8 µM) | 31.00 µg/mL (≈ 59.8 µM) | 0.500 µg/mL (≈ 0.964 µM) | 0.500 µg/mL (≈ 0.964 µM) | 0.120 µg/mL (≈ 0.231 µM) | 0.280 µg/mL (≈ 0.54 µM)
7 | CC(C)C1=CC2CC3(C=O)C4CCC(C)C4CC2(COC2CC4OCOC4C(C)O2)C13C(=O)[O-].[Na+] (stereo not drawn) [Example 13] | 0.008 µg/mL | 0.500 µg/mL | 0.120 µg/mL | 8.00 µg/mL | 8.00 µg/mL | 0.015 µg/mL | 0.015 µg/mL | 0.008 µg/mL | 0.015 µg/mL
